In US20130287918A1, “MICROBICIDAL COMPOSITION” (DUPONT NUTRITION DIOSCIENCES APS, priority 2010, published 2013):

Experiments:
pool of 4 yeast species = assay: Ranch dressing challenge study, yeast count on YGC agar; assay type: cell-based; conditions: for Cell counts on YGC-agar to determine the yeast growth: 0.1% in Ranch dressing, inoculation 500 CFU/g, 20° C.
Excerpt: Samples of the regular ranch dressing (formula in table 24) with and without the experimental blend were produced in the Danisco Culinary Application Laboratory, Brabrand.
Each batch was split (scheme table 23) in probes of 90 gram and placed in sterile jars. 36 probes of each batch were inoculated with the desired level of yeast and 5 probes of each batch were inoculated with mould spores, respectively at a targeted inoculation rate of 500 to 1000 CFU/g.
(§1) The viscous products were thoroughly mixed (2 minutes) within 10 minutes of inoculation to ensure that the inoculum was evenly distributed throughout the product. One sample remained un-inoculated and was used as negative control to monitor the native contamination flora. All samples were incubated at ambient temperature (20° C.) and assayed for yeast, plated on an appropriate yeast medium, until confirmed failure (≧1.0E+05 CFU/g) or until visible mould growth, respectively. In parallel, the growth of lactic acid bacteria and total cell count were monitored on MRS and PCA in all the batches and the non-inoculated blind, respectively.
(§2) In total 8 strains, from Danisco's in-house Culture Collection (DCS) (Danisco A/S, Brabrand, Denmark) were employed as 1 yeast and 1 mould pool in the respective Ranch dressing. Originally, they were isolated e.g. from spoiled ketchup, mayonnaise, Salsa dressing or obtained from official culture collections such as DMSZ.
(§3) Before each experiment, a stock culture of each yeast, maintained at −86° C. in suitable broth containing glycerol 50% (v/v), was propagated through two consecutive growth cycles in suitable media (YGC-agar (VWR) pH 5.1+0.2; YM Broth (Becton, Dickinson and company) at pH 6.0±0.2 at and temperature (25° C.). The overnight cultures are diluted in saline solution to obtain working cultures. A cocktail of the yeasts was generated by adding equal cell counts of each culture into a sterile container and mixed appropriately. The yeast cocktail was diluted and inoculated into the product in order to achieve the final desired concentration. Pool counts were verified via plate count. Mould spores were prepared as follows: approx. 2 ml of sterile demineralised water was used to wash the spores off an out-grown mould cultivar (minimum 5 day old plate). This suspension is transferred to a sterile container. Pool counts were verified via plate count.
The Ranch dressing was assayed a time zero, day 3, day 7, day 14, bi-weekly thereafter until week 13 (day 90) and every 4 to 6 weeks until week 29. CFU/g was detected for 3 samples from each batch inoculated with yeast. Before each sampling (closed jar), the sample was thoroughly mixed. 10 gram sample were aseptically pulled from each jar and diluted with peptone water. Each sample was stomached (1 min, normal setting) plated in duplicate onto YGC agar (VWR), PC agar and MRS agar (VWR), and incubated at 25° C. for 5 and 7 days and 37° C. for 3 days, respectively.

[1] = Ranch dressing challenge study, pH measurement; assay type: physicochemical; conditions: 0.1%, non-inoculated sample
Excerpt: A pH measurement of non-inoculated sample material took place at every sampling date using a Mettler Toledo Seven Easy pH meter.

[2] = tested on: pool of 4 yeast species (Candida tropicalis DCS 604, Zygosaccharomyces bailii DCS 1167 and DCS 1172, Pichia spp DCS 1175); assay: Salsa sauce fresh challenge study, yeast count on YGC agar; assay type: cell-based; conditions: Salsa sauce 4° C., FP1000-D1 1%, FP1000-D2 1%, MG200 1%, Potassium Sorbate 0.1%
Excerpt: Samples of the Salsa sauce (formula in table 17) with and without the experimental blend were produced. […] It needs to be mentioned that the Salsa sauce was not pasteurized.
Each batch was split (scheme table 15) in probes of 90 gram and placed in sterile jars. 21 probes of each batch were inoculated with the desired level of yeast and 5 probes of each batch were inoculated with mould spores, respectively at a targeted inoculation rate of 300 to 800 CFU/g.
as §1, with “incubated in the dark” for “incubated”, “chilled” for “ambient”, “(4°” for “(20°”, “(≧1.0E+06” for “(≧1.0E+05”
as §2, with “strains, available” for “strains,”, “Danisco's” for “Danisco's in-house”, “Salsa sauce.” for “Ranch dressing.”, “mayonnaise.” for “mayonnaise,”
as §3, with “Company)” for “company)”, “count.” for “count. Mould spores were prepared as follows: approx. 2 ml of sterile demineralised water was used to wash the spores off an out-grown mould cultivar (minimum 5 day old plate). This suspension is transferred to a sterile container. Pool counts were verified via plate count.”
The Salsa sauces were assayed at time zero, day 3, day 7, day 14 and were plated bi-weekly thereafter until day 92. CFU/g was detected for 3 samples from each batch inoculated with yeast. Before each sampling (closed jar), the sample was thoroughly mixed, 10 gram sample were aseptically pulled from each jar and diluted with peptone water. Each sample was stomached (1 min, normal setting) plated in duplicate onto YGC agar (VWR) and MRS (VWR), and incubated at 25° C. for 5 days and 37° C. for 3 days, respectively.

For `C/C=C/C=C/C(=O)[O-].[K+]` [Potassium Sorbate, potassium sorbate], the “initial reduction of the inoculated cell load” value (pool of 4 yeast species; Ranch dressing 20° C., FP1000 D1/D2 1%, MicroGARD 200 1%, potassium sorbate 0.1%) was 2 log, the “Cell counts on YGC-agar to determine the yeast growth” value (pool of 4 yeast species; day 0) was 3.20E+02 CFU/g and the “Cell counts on YGC-agar to determine the yeast growth” value (pool of 4 yeast species; day 3) was 1.70E+02 CFU/g. The “Cell counts on YGC-agar to determine the yeast growth” value (pool of 4 yeast species; day 7) was 7.50E+01 CFU/g, the “Cell counts on YGC-agar to determine the yeast growth” value (pool of 4 yeast species; day 14) was 1.00E+01 CFU/g and the “Cell counts on YGC-agar to determine the yeast growth” value (pool of 4 yeast species; day 28) was 1.00E+01 CFU/g. For the same compound, the “Cell counts on YGC-agar to determine the yeast growth” value (pool of 4 yeast species; day 42) was 1.00E+01 CFU/g, the “Cell counts on YGC-agar to determine the yeast growth” value (pool of 4 yeast species; day 56) was 1.00E+01 CFU/g and the “Cell counts on YGC-agar to determine the yeast growth” value (pool of 4 yeast species; day 64) was 1.00E+01 CFU/g. For the same compound, the “Cell counts on YGC-agar to determine the yeast growth” value (pool of 4 yeast species; day 90) was 1.00E+01 CFU/g, the “Cell counts on YGC-agar to determine the yeast growth” value (pool of 4 yeast species; day 157) was 1.00E+01 CFU/g and the “Cell counts on YGC-agar to determine the yeast growth” value (pool of 4 yeast species; day 198) was 1.00E+01 CFU/g. For the same compound, the “pH development of the Ranch dressing batch” value (shortened to “pH development”) ([1]; day 0) was 4.02, the “pH development” value ([1]; day 3) was 4.00 and the “pH development” value ([1]; day 7) was 4.02. The “pH development” value ([1]; day 14) was 4.00, the “pH development” value ([1]; day 28) was 3.94 and the “pH development” value ([1]; day 42) was 3.96. For the same compound, the “pH development” value ([1]; day 56) was 3.96, the “pH development” value ([1]; day 64) was 3.95 and the “pH development” value ([1]; day 90) was 3.96. The “pH development” value ([1]; day 157) was 3.92, the “pH development” value ([1]; day 198) was 3.94 and the “Cell counts on YGC-agar (yeast growth)” value ([2]; day 0) was 4.75E+02 CFU/g. The “Cell counts on YGC-agar (yeast growth)” value ([2]; day 2) was 2.50E+02 CFU/g, the “Cell counts on YGC-agar (yeast growth)” value ([2]; day 5) was 1.00E+02 CFU/g and the “Cell counts on YGC-agar (yeast growth)” value ([2]; day 7) was 6.80E+01 CFU/g. For the same compound, the “Cell counts on YGC-agar (yeast growth)” value ([2]; day 14) was 4.80E+01 CFU/g, the “Cell counts on YGC-agar (yeast growth)” value ([2]; day 28) was 1.45E+02 CFU/g and the “Cell counts on YGC-agar (yeast growth)” value ([2]; day 41) was 3.30E+01 CFU/g. For the same compound, the “Cell counts on YGC-agar (yeast growth)” value ([2]; day 55) was 3.20E+01 CFU/g and the “Cell counts on YGC-agar (yeast growth)” value ([2]; day 93) was 3.30E+01 CFU/g.
